In patent US20240059698A1 (Accutar Biotechnology Inc., priority 2022, published 2024) one finds GI50 data, which are given here for 14 molecules.

Assay type in all cases: cell-based
For one experiment, the system named is HCC827 cells. Put plainly: Cell growth inhibition (CellTiter-Glo), HCC827. The note with it: Homo sapiens, 72 h, 3 days. In short, it runs like this:
(§1)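 HCC827 cells in RPMI and A431 cells in DMEM (both 10% FBS) were seeded at 5000 cells/well and left overnight. They were then exposed to compound dilutions for 3 days at 37° C. Viability was read by CellTiter-Glo luminescence.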
In general terms: Cellular ATP, detected with luciferase, serves as a proxy for viable cell number.

Experiment [1] relates to HCC827-SVD cells (human EGFR exon 20 insertion mutant D770_N771insSVD). Put plainly: Cell growth inhibition (CellTiter-Glo), HCC827-SVD. The conditions noted are these: 72 h, 3 days. A digest of the protocol: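 HCC827 cells with endogenous EGFR knocked out and lentivirally expressing the insertion mutant (single clone) were seeded at 5000 cells/well in RPMI with 10% FBS. After overnight, compounds added; 3 days at 37 °C, then CellTiter-Glo luminescence.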

The subject of experiment [2] is HCC827-ASV cells (human EGFR exon 20 insertion mutant V769_D770insASV). Put plainly: Cell growth inhibition (CellTiter-Glo), HCC827-ASV. The note with it: 72 h, HCC827-ASV cells, 3 days, CellTiter-Glo, read-out: Cell growth inhibition, GI50 (nM) HCC827-ASV. The method, then:
Generation of HCC827-SVD, HCC827-ASV, and HCC827-YVMA cell lines. The HCC827-SVD cell line was generated by first transducing HCC827 cells (ATCC) with lentiviral particles expressing codon-optimized human EGFR exon 20 insertion mutant D770_N771insSVD, and then selecting under 5 µg/mL puromycin treatment for a week. The resulting cells were further transduced with lentiviral particles carrying EGFR sgRNA and CAS9 to knockout the endogenous alleles of EGER and then selected under 500 µg/mL hygromycin B treatment for two weeks. The limiting dilution approach was used to subsequently generate the single clone of the HCC827-SVD stable cell line. Endogenous EGFR knockout was confirmed by Sanger sequencing of cell genomic DNA, and expression of exogenous mutant EGFR was verified by Western blot analysis.
HCC827-ASV and HCC827-YVMA cell lines were generated in a similar approach as HCC827-SVD, except that HCC827 cells (ATCC) were first transduced with lentiviral particles expressing codon-optimized human EGFR exon 20 insertion mutant V769_D770insASV and human ERBB2 exon20 insertion mutant A775_G776ins YVMA, respectively.
2. Cell Growth Inhibition for HCC827, HCC827-SVD, HCC827-ASV, HCC827-YVMA, and A431.
HCC827(ATCC), HCC827-SVD, HCC827-ASV, and HCC827-YVMA cells were seeded in 96-well plates at 5000 cells/well in 90 μL of RPMI growth medium containing 10% FBS and 1% Penicillin Streptomycin. A431 (ATCC) cells were seeded in 96-well plates at 5000 cells/well in 90 μL of DMEM growth medium containing 10% FBS and 1% Penicillin Streptomycin. Cells were incubated at 37° C. overnight and then administered with 10 μL 10× test compounds prepared in the growth medium at various concentrations. After administration of the compounds, cells were incubated at 37° C. for 3 days. Before the CellTiter-Glo assay, the plates were equilibrated at room temperature for approximately 30 minutes. 100 ul of CellTiter-Glo reagent (Promega) was added to each well. The plates were then incubated at room temperature for 10 minutes and luminescence was recorded by the EnSight® multimode plate reader (PerkinElmer). Table 7 listed selected compounds in cellular growth assay.

For experiment [3], the system named is HCC827-YVMA cells (human ERBB2 exon20 insertion mutant A775_G776ins YVMA). In words: Cell growth inhibition (CellTiter-Glo), HCC827-YVMA. The note with it: 72 h, HCC827-YVMA cells, 3 days, CellTiter-Glo, read-out: Cell growth inhibition, GI50 (nM) HCC827-YVMA. In short, it runs like this: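 HCC827 cells transduced with lentiviral codon-optimized mutant (ERBB2 A775_G776insYVMA or EGFR V769_D770insASV), endogenous EGFR knocked out by CRISPR, single clone selected. Cells seeded overnight in RPMI/10% FBS, then exposed to serially diluted compounds at 37 °C for 3 days; viability read by CellTiter-Glo luminescence.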

Another experiment relates to A431 cells. Put plainly: Cell growth inhibition (CellTiter-Glo), A431. The conditions noted are these: Homo sapiens, A-431, 72 h, 3 days. In short, it runs like this:
as §1

As a reminder, the GI50 is the concentration giving 50% growth inhibition. As for `C=CC(=O)N1CCC(c2c[nH]c3ncnc(Nc4ccc(OCc5ccccn5)c(Cl)c4)c23)CC1` [Compound 156, 1-(4-(4-((3-chloro-4-(pyridin-2-ylmethoxy)phenyl)amino)-7H-pyrrolo[2,3-d]pyrimidin-5-yl)piperidin-1-yl)prop-2-en-1-one], the GI50 (in the experiment with HCC827 cells; in experiment [1]; in experiment [2]; in experiment [3]; in the experiment on A431 cells) was less than 50 nM in each case.

Consider `C=CC(=O)N1CCC(c2c[nH]c3ncnc(Nc4ccc(Oc5ccn(Cc6cc(C)ccn6)n5)cc4F)c23)CC1` [Compound 157, 1-(4-(4-((2-fluoro-4-((1-((4-methylpyridin-2-yl)methyl)-1H-pyrazol-3-yl)oxy)phenyl)amino)-7H-pyrrolo[2,3-d]pyrimidin-5-yl)piperidin-1-yl)prop-2-en-1-one], for which the GI50 in the experiment on HCC827 cells was 200 to 1000 nM; in experiment [1], 50 to 200 nM; in experiment [2] it was 50 to 200 nM; in experiment [3] it was 50 to 200 nM; with A431 cells it was greater than 1000 nM.

With `C=CC(=O)N1CCC(c2csc3ncnc(Nc4ccc(Oc5ccn(Cc6cc(C)ccn6)n5)cc4F)c23)CC1` [Compound 158, 1-(4-(4-((2-fluoro-4-((1-((4-methylpyridin-2-yl)methyl)-1H-pyrazol-3-yl)oxy)phenyl)amino)thieno[2,3-d]pyrimidin-5-yl)piperidin-1-yl)prop-2-en-1-one], the GI50 in the experiment on HCC827 cells was greater than 1000 nM; in experiment [1], greater than 1000 nM; in experiment [2], 200 to 1000 nM; in experiment [3], 50 to 200 nM; in the experiment on A431 cells, greater than 1000 nM.

As to `C=CC(=O)N1CCC(c2csc3ncnc(Nc4ccc(Oc5ccnc(N6C[C@@H](C)O[C@@H](C)C6)c5)cc4F)c23)CC1` [Compound 159, 1-(4-(4-((4-((2-((2R,6S)-2,6-dimethylmorpholino)pyridin-4-yl)oxy)-2-fluorophenyl)amino)thieno[2,3-d]pyrimidin-5-yl)piperidin-1-yl)prop-2-en-1-one], the GI50 in the experiment on HCC827 cells is greater than 1000 nM; in experiment [1], 200 to 1000 nM; in experiment [2] it was 200 to 1000 nM; in experiment [3], 200 to 1000 nM; in the experiment with A431 cells, greater than 1000 nM.

As to `C=CC(=O)N1CCC(c2csc3ncnc(Nc4ccc(OCc5ccccn5)c(Cl)c4)c23)CC1` [Compound 160, 1-[4-[4-[3-chloro-4-(2-pyridylmethoxy)anilino]thieno[2,3-d]pyrimidin-5-yl]-1-piperidyl]prop-2-en-1-one], the GI50 (in the experiment with HCC827 cells; in experiment [1]; in experiment [2]; in experiment [3]; in the experiment on A431 cells) was less than 50 nM in each case.

For `C=CC(=O)N1CCC(c2n[nH]c3ncnc(Nc4ccc(Oc5ccn(Cc6cc(C)ccn6)n5)cc4F)c23)CC1` [Compound 164, 1-(4-(4-((2-fluoro-4-((1-((4-methylpyridin-2-yl)methyl)-1H-pyrazol-3-yl)oxy)phenyl)amino)-1H-pyrazolo[3,4-d]pyrimidin-3-yl)piperidin-1-yl)prop-2-en-1-one], the GI50 in the experiment on HCC827 cells was in the range of 200 to 1000 nM; in experiment [1], 200 to 1000 nM; in experiment [2], 200 to 1000 nM; in experiment [3] it was 50 to 200 nM; in the experiment on A431 cells, 200 to 1000 nM.

Regarding `C=CC(=O)N1CCC(c2n[nH]c3ncnc(Nc4ccc(OCc5ccccn5)c(Cl)c4)c23)CC1` [Compound 166, 1-(4-(4-((3-chloro-4-(pyridin-2-ylmethoxy)phenyl)amino)-1H-pyrazolo[3,4-d]pyrimidin-3-yl)piperidin-1-yl)prop-2-en-1-one], the concentration for 50% growth inhibition (GI50) (in the experiment on HCC827 cells; in experiment [1]; in experiment [2]; in experiment [3]; in the experiment with A431 cells) was less than 50 nM throughout.

With `C=CC(=O)N1CCC(c2n[nH]c3ncnc(Nc4ccc(Oc5ccnc(N6C[C@@H](C)O[C@@H](C)C6)c5)cc4F)c23)CC1` [Compound 167, 1-(4-(4-((4-((2-((2R,6S)-2,6-dimethylmorpholino)pyridin-4-yl)oxy)-2-fluorophenyl)amino)-1H-pyrazolo[3,4-d]pyrimidin-3-yl)piperidin-1-yl)prop-2-en-1-one], the 50% growth inhibitory concentration (GI50) is greater than 1000 nM in the experiment on HCC827 cells; 50 to 200 nM in experiment [1]; 50 to 200 nM in experiment [2]; 50 to 200 nM in experiment [3]; greater than 1000 nM with A431 cells.

With `C=CC(=O)N1CCC(c2n[nH]c3ncnc(Nc4ccc(Oc5ccnc(N6CCC(C(F)(F)F)C6)c5)cc4F)c23)CC1` (stereo not shown) [Compound 173, 1-(4-(4-((2-fluoro-4-((2-(3-(trifluoromethyl)pyrrolidin-1-yl)pyridin-4-yl)oxy)phenyl)amino)-1H-pyrazolo[3,4-d]pyrimidin-3-yl)piperidin-1-yl)prop-2-en-1-one], the GI50 was 200 to 1000 nM with HCC827 cells; 50 to 200 nM in experiment [1]; less than 50 nM in experiment [2]; less than 50 nM in experiment [3]; greater than 1000 nM with A431 cells.

`C=CC(=O)N1CCC(c2n[nH]c3ncnc(Nc4ccc(Oc5ccnc(N6CCC(F)(F)C6)c5)cc4F)c23)CC1` [Compound 175, 1-(4-(4-((4-((2-(3,3-difluoropyrrolidin-1-yl)pyridin-4-yl)oxy)-2-fluorophenyl)amino)-1H-pyrazolo[3,4-d]pyrimidin-3-yl)piperidin-1-yl)prop-2-en-1-one]: the GI50 in the experiment on HCC827 cells was greater than 1000 nM; in experiment [1] it was 50 to 200 nM; in experiment [2] it was 50 to 200 nM; in experiment [3], 50 to 200 nM; in the experiment with A431 cells, greater than 1000 nM.

For the molecule `C=CC(=O)N1CCC(c2n[nH]c3ncnc(Nc4ccc(Oc5ccnc(N6CC(O)(C(F)(F)F)C6)c5)cc4F)c23)CC1` [Compound 177, 1-(4-(4-((2-fluoro-4-((2-(3-hydroxy-3-(trifluoromethyl)azetidin-1-yl)pyridin-4-yl)oxy)phenyl)amino)-1H-pyrazolo[3,4-d]pyrimidin-3-yl)piperidin-1-yl)prop-2-en-1-one], the 50% growth inhibitory concentration (GI50) in the experiment on HCC827 cells was greater than 1000 nM; in experiment [1], 200 to 1000 nM; in experiment [2] it was 200 to 1000 nM; in experiment [3], 50 to 200 nM; in the experiment with A431 cells it was greater than 1000 nM.

On to `C=CC(=O)N1CCC(c2n[nH]c3ncnc(Nc4ccc(Oc5ccnc(N6CC7CC7C6)c5)cc4F)c23)CC1` (stereo not shown) [Compound 180, 1-(4-(4-((4-((2-(3-azabicyclo[3.1.0]hexan-3-yl)pyridin-4-yl)oxy)-2-fluorophenyl)amino)-1H-pyrazolo[3,4-d]pyrimidin-3-yl)piperidin-1-yl)prop-2-en-1-one], for which the GI50 was 200 to 1000 nM with HCC827 cells; 50 to 200 nM in experiment [1]; 50 to 200 nM in experiment [2]; less than 50 nM in experiment [3]; greater than 1000 nM in the experiment with A431 cells.

Take `C=CC(=O)N1CCC(c2ccn3ncnc(Nc4ccc(Oc5ccn(Cc6cc(C)ccn6)n5)cc4F)c23)CC1` [Compound 197, 1-(4-(4-((2-fluoro-4-((1-((4-methylpyridin-2-yl)methyl)-1H-pyrazol-3-yl)oxy)phenyl)amino)pyrrolo[2,1-f][1,2,4]triazin-5-yl)piperidin-1-yl)prop-2-en-1-one]: the GI50 in the experiment on HCC827 cells was greater than 1000 nM; in experiment [1] it was greater than 1000 nM; in experiment [2], greater than 1000 nM; in experiment [3], 200 to 1000 nM; in the experiment with A431 cells, greater than 1000 nM.

For `C=CC(=O)N1CCC(c2ccn3ncnc(Nc4ccc(OCc5ccccn5)c(Cl)c4)c23)CC1` [Compound 198, 1-(4-(4-((3-chloro-4-(pyridin-2-ylmethoxy)phenyl)amino)pyrrolo[2,1-f][1,2,4]triazin-5-yl)piperidin-1-yl)prop-2-en-1-one], the GI50 (in the experiment with HCC827 cells; in experiment [1]; in experiment [2]; in experiment [3]; in the experiment on A431 cells) was less than 50 nM each time.
